Like-named read-outs stand apart in the source and are kept apart here.
Columns and labels:
Assay type in all cases: biochemical
hepsin = molecular target: T1, hepsin (Homo sapiens, UniProt P05981); assay: Fluorogenic kinetic enzyme inhibitor assay, hepsin
T1 construct: purchased R&D Systems 4776-SE-010

TMPRSS2 = TMPRSS2 (Homo sapiens, UniProt O15393); assay: Fluorogenic kinetic enzyme inhibitor assay, TMPRSS2; set-up: purchased Cusabio Technology CSB-YP023924HU
matriptase = molecular target: T2, matriptase (Homo sapiens, UniProt Q9Y5Y6); assay: Fluorogenic kinetic enzyme inhibitor assay, matriptase
T2 construct: purchased R&D Systems 3946-SEB-010
T2 sequence (Q9Y5Y6 615-855 limits assumed): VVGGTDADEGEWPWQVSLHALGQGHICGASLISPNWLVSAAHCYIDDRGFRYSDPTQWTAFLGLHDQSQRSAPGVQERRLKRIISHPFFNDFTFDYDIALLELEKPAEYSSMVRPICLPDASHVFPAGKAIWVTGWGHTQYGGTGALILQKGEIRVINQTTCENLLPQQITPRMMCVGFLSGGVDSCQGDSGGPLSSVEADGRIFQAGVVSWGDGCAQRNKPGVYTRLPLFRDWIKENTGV

Chain of TMPRSS2 (O15393 106-492 limits assumed): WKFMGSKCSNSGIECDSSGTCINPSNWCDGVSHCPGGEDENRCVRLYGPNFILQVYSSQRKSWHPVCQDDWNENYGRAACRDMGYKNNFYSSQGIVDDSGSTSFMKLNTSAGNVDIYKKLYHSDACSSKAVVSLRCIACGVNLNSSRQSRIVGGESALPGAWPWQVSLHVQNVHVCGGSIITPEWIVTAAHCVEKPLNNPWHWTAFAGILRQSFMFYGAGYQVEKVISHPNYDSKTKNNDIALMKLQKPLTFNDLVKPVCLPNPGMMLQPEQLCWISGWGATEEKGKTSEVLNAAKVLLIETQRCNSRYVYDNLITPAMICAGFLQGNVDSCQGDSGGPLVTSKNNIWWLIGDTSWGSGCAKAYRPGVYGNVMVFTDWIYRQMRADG
T1 sequence (P05981 163-417 limits assumed): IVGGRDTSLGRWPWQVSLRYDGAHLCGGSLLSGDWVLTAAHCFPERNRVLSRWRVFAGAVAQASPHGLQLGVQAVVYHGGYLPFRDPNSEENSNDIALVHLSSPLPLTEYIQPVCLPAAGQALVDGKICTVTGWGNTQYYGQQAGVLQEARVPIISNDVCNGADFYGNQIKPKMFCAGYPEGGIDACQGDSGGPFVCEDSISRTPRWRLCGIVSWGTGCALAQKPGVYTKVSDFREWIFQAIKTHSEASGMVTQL
T1 sequence (P05981 1-162 partner limits assumed): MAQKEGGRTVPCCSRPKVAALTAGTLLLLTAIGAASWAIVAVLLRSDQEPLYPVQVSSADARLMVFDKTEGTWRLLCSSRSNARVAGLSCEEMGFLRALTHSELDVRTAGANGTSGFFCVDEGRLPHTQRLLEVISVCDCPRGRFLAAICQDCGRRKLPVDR

Row | SMILES | IC50 (hepsin; read-out: Hepsin IC50) | IC50 (TMPRSS2; read-out: TMPRSS2 IC50) | IC50 (matriptase; read-out: Matriptase IC50) | IC50 (hepsin) | IC50 (TMPRSS2) | IC50 (matriptase)
1 | N=C(N)NCCC[C@H](NC(=O)[C@H](CCc1ccccc1)NC(=O)OCC1c2ccccc2-c2ccccc21)C(=O)c1nc2ccccc2s1 [MF1152, (S)-1-[N-(S)-1-[(1,3-benzothiazol-2-yl)carbonyl]-4-guanidinobutylcarbamoyl]-3-phenylpropyl (9H-fluoren-9-yl)methanecarbamate] | > 20000 nM | 200 nM | 47.4 nM | – | – | –
2 | CC(=O)N1c2ccccc2C[C@H]1C(=O)N[C@@H](CCC(=O)OC1CCCCC1)C(=O)N[C@@H](Cc1ccc(F)cc1)C(=O)N[C@@H](CCCNC(=N)N)C(=O)c1nc2ccccc2s1 [MF1065, cyclohexyl (S)-4-[(S)-1-acetyl-2-indolinylcarbonylamino]-4-[N-(S)-2-(p-fluorophenyl)-1-[N-(S)-1-[(1,3-benzothiazol-2-yl)carbonyl]-4-guanidinobutylcarbamoyl]ethylcarbamoyl]butyrate] | – | – | – | 1.76 nM | 0.062 nM | 3.49 nM
3 | CC(=O)N[C@@H](CO)C(=O)NCc1ccc(CC(=O)N[C@@H](CC(C)C)C(=O)N[C@@H](CCCNC(=N)N)C(=O)c2nc3ccccc3s2)cc1 [AJS3200, N-[(S)-1-[(1,3-benzothiazol-2-yl)carbonyl]-4-guanidinobutyl](S)-2-{[(p-{[(S)-2-acetylamino-3-hydroxypropionylamino]methyl}phenyl)methyl]carbonylamino}-4-methylvaleramide] | 2.81 nM | 0.376 nM | 9.52 nM | – | – | –
4 | N=C(N)NCCC[C@H](NC(=O)[C@H](Cc1ccccc1)NC(=O)[C@H](CCC(N)=O)NS(=O)(=O)C1CC1)C(=O)c1nc2ccccc2s1 [MF1104, N-[(S)-1-[N-(S)-1-[(1,3-benzothiazol-2-yl)carbonyl]-4-guanidinobutylcarbamoyl]-2-phenylethyl](S)-2-(cyclopropylsulfonylamino) glutaramide] | 1.07 nM | 0.273 nM | 5.59 nM | – | – | –
5 | N=C(N)NCCC[C@H](NC(=O)[C@H](CCCCOCc1ccccc1)NC(=O)OCC1c2ccccc2-c2ccccc21)C(=O)c1nc2ccccc2s1 [MF1165, (S)-5-(benzyloxy)-1-[N-(S)-1-[(1,3-benzothiazol-2-yl)carbonyl]-4-guanidinobutylcarbamoyl] pentyl (9H-fluoren-9-yl)methanecarbamate] | 0.1 nM | 0.864 nM | 31.1 nM | – | – | –
6 | N=C(N)NCCC[C@H](NC(=O)[C@H](Cc1cccs1)NC(=O)OCC1c2ccccc2-c2ccccc21)C(=O)c1nc2ccccc2s1 [MF1184, (S)-1-[N-(S)-1-[(1,3-benzothiazol-2-yl)carbonyl]-4-guanidinobutylcarbamoyl]-2-(2-thienyl)ethyl (9H-fluoren-9-yl)methanecarbamate] | 118 nM | 0.466 nM | 58.7 nM | – | – | –
7 | N=C(N)NCCC[C@H](NC(=O)[C@H](CCC(=O)OCc1ccccc1)NC(=O)OCc1ccccc1)C(=O)c1nc2ccccc2s1 [MF1169, benzyl (S)-4-[benzyl(oxycarbonylamino)]-4-[N-(S)-1-[(1,3-benzothiazol-2-yl)carbonyl]-4-guanidinobutylcarbamoyl] butyrate] | > 20000 nM | 75 nM | 290 nM | – | – | –
8 | CC(=O)N[C@@H](CO)C(=O)NCc1ccc(C(=O)N[C@@H](CC(C)C)C(=O)N[C@@H](CCCNC(=N)N)C(=O)c2nc3ccccc3s2)cc1 [AJS4016] | 21.8 nM | 0.067 nM | 10.3 nM | – | – | –
9 | N=C(N)NCCC[C@H](NC(=O)[C@H](Cc1ccccc1)NC(=O)[C@H](CCC(N)=O)NS(=O)(=O)Cc1ccccc1)C(=O)c1nc2ccccc2s1 [MF1105, N-[(S)-1-[N-(S)-1-[(1,3-benzothiazol-2-yl)carbonyl]-4-guanidinobutylcarbamoyl]-2-phenylethyl](S)-2-(benzylsulfonylamino) glutaramide] | 0.31 nM | 0.07 nM | 1.48 nM | – | – | –
10 | N=C(N)NCCC[C@H](NC(=O)[C@H](Cc1ccccc1)NC(=O)[C@H](CCC(N)=O)NS(=O)(=O)c1ccccc1)C(=O)c1nc2ccccc2s1 [MF1101, N-[(S)-1-[N-(S)-1-[(1,3-benzothiazol-2-yl)carbonyl]-4-guanidinobutylcarbamoyl]-2-phenylethyl](S)-2-(phenylsulfonylamino) glutaramide] | 0.8 nM | 1.02 nM | 2.89 nM | – | – | –
11 | CC(=O)N[C@@H](CCC(C)C)C(=O)N[C@@H](CCC(=O)OC1CCCCC1)C(=O)N[C@@H](Cc1ccc(F)cc1)C(=O)N[C@@H](CCCNC(=N)N)C(=O)c1nc2ccccc2s1 [MF1125, cyclohexyl (S)-4-[(S)-1-acetylamino-4-methylpentylcarbonylamino]-4-[N-(S)-2-(p-fluorophenyl)-1-[N-(S)-1-[(1,3-benzothiazol-2-yl)carbonyl]-4-guanidinobutylcarbamoyl]ethylcarbamoyl]butyrate] | – | – | – | 3.5 nM | 0.085 nM | 3.05 nM
12 | N=C(N)NCCC[C@H](NC(=O)[C@H](CC1CCCCC1)NC(=O)OCC1c2ccccc2-c2ccccc21)C(=O)c1nc2ccccc2s1 [MF1142, (S)-2-cyclohexyl-1-[N-(S)-1-[(1,3-benzothiazol-2-yl)carbonyl]-4-guanidinobutylcarbamoyl] ethyl (9H-fluoren-9-yl)methanecarbamate] | 2390 nM | 0.04 nM | 2810 nM | – | – | –
13 | N=C(N)NCCC[C@H](NC(=O)[C@H](Cc1cn(Cc2ccccc2)cn1)NC(=O)OCC1c2ccccc2-c2ccccc21)C(=O)c1nc2ccccc2s1 [MF1158, (S)-2-(1-benzyl-4-imidazolyl)-1-[N-(S)-1-[(1,3-benzothiazol-2-yl)carbonyl]-4-guanidinobutylcarbamoyl] ethyl (9H-fluoren-9-yl)methanecarbamate] | > 20000 nM | 68.7 nM | 39.9 nM | – | – | –
14 | N=C(N)NCCC[C@H](NC(=O)[C@H](Cc1cccc2ccccc12)NC(=O)OCC1c2ccccc2-c2ccccc21)C(=O)c1nc2ccccc2s1 [MF1144, (S)-2-(1-naphthyl)-1-[N-(S)-1-[(1,3-benzothiazol-2-yl)carbonyl]-4-guanidinobutylcarbamoyl] ethyl (9H-fluoren-9-yl)methanecarbamate] | 1410 nM | > 20000 nM | > 20000 nM | – | – | –
15 | N=C(N)NCCC[C@H](NC(=O)[C@H](Cc1ccccc1)NC(=O)[C@H](CCC(N)=O)NC(=O)OCc1ccccc1)C(=O)c1nc2ccccc2s1 [ZFH9141] | 1.25 nM | 0.418 nM | 1.02 nM | – | – | –
16 | N=C(N)NCCC[C@H](NC(=O)[C@H](Cc1ccc(F)cc1)NC(=O)OCC1c2ccccc2-c2ccccc21)C(=O)c1nc2ccccc2s1 [MF1131, (S)-2-(p-fluorophenyl)-1-[N-(S)-1-[(1,3-benzothiazol-2-yl)carbonyl]-4-guanidinobutylcarbamoyl]ethyl (9H-fluoren-9-yl)methanecarbamate] | 1130 nM | 14 nM | 967 nM | – | – | –
17 | N=C(N)NCCC[C@H](NC(=O)[C@H](Cc1cccc(Cl)c1)NC(=O)OCC1c2ccccc2-c2ccccc21)C(=O)c1nc2ccccc2s1 [MF1134, (S)-2-(m-chlorophenyl)-1-[N-(S)-1-[(1,3-benzothiazol-2-yl)carbonyl]-4-guanidinobutylcarbamoyl] ethyl (9H-fluoren-9-yl)methanecarbamate] | 1630 nM | 6.3 nM | > 20000 nM | – | – | –
18 | N=C(N)NCCC[C@H](NC(=O)[C@H](Cc1ccc2ccccc2c1)NC(=O)OCC1c2ccccc2-c2ccccc21)C(=O)c1nc2ccccc2s1 [MF2012, (S)-2-(2-naphthyl)-1-[N-(S)-1-[(1,3-benzothiazol-2-yl)carbonyl]-4-guanidinobutylcarbamoyl] ethyl (9H-fluoren-9-yl)methanecarbamate] | – | 187 nM | > 20000 nM | – | – | –
19 | CCC(C)[C@H](NC(C)=O)C(=O)N[C@@H](CCSC)C(=O)N[C@@H](Cc1ccccc1)C(=O)N[C@@H](CCCNC(=N)N)C(=O)c1nc2ccccc2s1 (stereo partly drawn) [MM4027-2, N-[(S)-3-(methylthio)-1-[N-(S)-1-[N-(S)-1-[(1,3-benzothiazol-2-yl)carbonyl]-4-guanidinobutylcarbamoyl]-2-phenylethylcarbamoyl]propyl](2S)-2-acetylamino-3-methylvaleramide] | 1.31 nM | 2.96 nM | – | – | – | 0.51 nM
20 | C=CCOC(=O)CC[C@H](NC(=O)[C@@H]1CC2CCCCC2N1C(C)=O)C(=O)N[C@@H](Cc1ccc(F)cc1)C(=O)N[C@@H](CCCNC(=N)N)C(=O)c1nc2ccccc2s1 (stereo partly drawn) [MF1068, allyl (S)-4-[(2S)-1-acetyloctahydro-2H-indol-2-ylcarbonylamino]-4-[N-(S)-2-(p-fluorophenyl)-1-[N-(S)-1-[(1,3-benzothiazol-2-yl)carbonyl]-4-guanidinobutylcarbamoyl]ethylcarbamoyl]butyrate] | 0.308 nM | 0.083 nM | – | – | – | 0.375 nM
21 | N=C(N)NCCC[C@H](NC(=O)[C@@H](NC(=O)OCc1ccccc1)c1cccs1)C(=O)c1nc2ccccc2s1 [MF1177, (R)-[N-(S)-1-[(1,3-benzothiazol-2-yl)carbonyl]-4-guanidinobutylcarbamoyl] (2-thienyl)methyl-phenylmethanecarbamate] | 6.07 nM | 0.211 nM | 37.6 nM | – | – | –
22 | N=C(N)NCCC[C@H](NC(=O)[C@H](Cc1csc2ccccc12)NC(=O)OCc1ccccc1)C(=O)c1nc2ccccc2s1 [MF1168, (S)-2-(1-benzothiophen-3-yl)-1-[N-(S)-1-[(1,3-benzothiazol-2-yl)carbonyl]-4-guanidinobutylcarbamoyl] ethyl-phenylmethanecarbamate] | > 20000 nM | 0.264 nM | > 20000 nM | – | – | –
